Test results reported in patent publication US5753647A, “Acylamino-substituted hetrazepines” (Boehringer Ingelheim KG, priority 1991, dated 1998).
pKi: −log10 of the molar value.

Biological target: T1, PAF receptor on washed human platelets (Homo sapiens, UniProt P25105)
T1 construct: endogenous in cells; host or cells: human blood platelets (thrombocytes) from healthy donors, purified by Sepharose CL-2B chromatography
Test: not given
Details: as known from the prior art (EP 367 110); read-out: binding value Ki of prior art compound; cited from earlier work

T1 sequence (P25105 whole entry): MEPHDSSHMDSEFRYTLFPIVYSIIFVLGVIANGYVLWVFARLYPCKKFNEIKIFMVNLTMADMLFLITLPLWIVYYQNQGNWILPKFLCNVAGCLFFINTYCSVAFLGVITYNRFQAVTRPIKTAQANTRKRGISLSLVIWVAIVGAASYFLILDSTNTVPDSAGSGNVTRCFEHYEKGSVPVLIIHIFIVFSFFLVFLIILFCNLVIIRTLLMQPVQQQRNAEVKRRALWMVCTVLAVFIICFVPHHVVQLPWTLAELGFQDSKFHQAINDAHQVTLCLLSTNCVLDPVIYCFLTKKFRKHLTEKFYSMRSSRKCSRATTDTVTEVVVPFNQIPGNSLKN

Q: With `Cc1nnc2n1-c1sc3c(c1C(c1ccccc1Cl)=NC2)CCN(C(=O)C1CC1)C3` [3-cyclopropylcarbonyl-6-(2-chlorophenyl)-11-methyl-2,3,4,5-tetrahydro-4H-pyrido-[4,3:4',5']thieno[3,2-f][1,2,4]triazolo[4,3-a]-1,4-diazepine] as the molecule, how does the pKi read?
A: Its pKi is 7.89.

Biological target: T1, PAF receptor on washed human platelets
Test: [^3 H]PAF-receptor binding to vital human blood platelets
Details: vital human thrombocytes
Protocol: [^3 H]PAF-Receptor-Bonding to Vital Human Blood Platelets
The competitive interaction of test substances (here PAF-antagonists) with the known interaction of the radioligand [^3 H]PAF to the same receptor is determined. The binding studies are carried out on vital human thrombocytes. Blood samples from healthy donors were diluted with ACD-buffer and centrifuged (15 min., 160×g). The platelet-rich plasma is purified by chromatography on Sepharose CL-2B [using HEPES-buffer, pH 7.4 at 20° C. for eluting].
Defined quantities [e.g. 800 μl] of the platelet suspension were incubated for 90 minutes at ambient temperature, i.e. mixed with: a) a 30 picomolar [^3 H]PAF-solution diluted with buffer. b) a 30 picomolar [3 H] PAF-solution which simultaneously contains a μ-molar (unlabelled) PAF-solution, c) with the 30 picomolar [^3 H]PAF-solution and the solutions of the test substances (different concentrations) d) used to determine total binding, e) used to determine non-specific binding.
The reaction was stopped by vacuum filtration. The filters with the blood platelets were mixed with scintillation liquid and the residual radioactivity measured in a counter.
The specific binding is obtained from the total binding minus the nonspecific binding. Either the IC50 values (i.e. the concentration of test substance which displaces 50% of the radioligand--in this case [^3 H] PAF--from the receptor) is determined and this is specified, or the Ki -values are calculated from this. This may be done by computer-aided calculation using an iteration process of the binding curves. IC50 and Ki-values are a measurement of the receptor affinity of the test substance. Lower values indicate a higher affinity.

Q: With “3-(4-Isobutylbenzoyl)-6-(2-chlorophenyl)-8,11-dimethyl-2,3,4,5-tetrahydro-4H-pyrido[4,3:4',5']thieno-[3,2-f][1,2,4]triazolo[4,3-a]1,4diazepine [Example 2]” as the molecule, how does the pKi read?
A: The pKi was 8.74.

Q: With `Cc1nnc2n1-c1sc3c(c1C(c1ccccc1Cl)=NC2C)CCN(C(=O)c1ccc(Cl)cc1)C3` (centres unmarked) [Example 1, 3-(4-Chlorobenzoyl)-6-(2-chlorophenyl)-8,11-dimethyl-2,3,4,5-tetrahydro-4H-pyrido[4,3 :4',5']thieno-[3,2-f][1,2,4]triazolo[4,3-a]-1,4-diazepine] as the molecule, how does the pKi read?
A: The pKi was 8.54.

Q: With `Cc1nnc2n1-c1sc3c(c1C(c1ccccc1Cl)=NC2C)CCN(C(=O)c1ccc(Cl)cc1)C3` (centres unmarked) [Example 1a] as the molecule, how does the pKi read?
A: The pKi was 8.72.

Q: With `Cc1nnc2n1-c1sc3c(c1C(c1ccccc1Cl)=NC2C)CCN(C(=O)c1ccc(Cl)cc1)C3` (centres unmarked) [Example 1b] as the molecule, how does the pKi read?
A: The pKi was 7.15.

Q: With `Cc1ccc(C(=O)N2CCc3c(sc4c3C(c3ccccc3Cl)=NC(C)c3nnc(C)n3-4)C2)cc1` (centres unmarked) [Example 20] as the molecule, how does the pKi read?
A: The pKi was 7.66.

Q: With `Cc1nnc2n1-c1sc3c(c1C(c1ccccc1Cl)=NC2C)CCN(C(=O)c1ccc(C(C)(C)C)cc1)C3` (centres unmarked) [Example 25] as the molecule, how does the pKi read?
A: The pKi was 8.62.

Q: With `COc1ccc(C(=O)N2CCc3c(sc4c3C(c3ccccc3Cl)=NC(C)c3nnc(C)n3-4)C2)cc1` (centres unmarked) [Example 29] as the molecule, how does the pKi read?
A: The pKi was 8.11.

Q: With `Cc1nnc2n1-c1sc3c(c1C(c1ccccc1Cl)=NC2C)CCN(C(=O)c1ccc(C(F)(F)F)cc1)C3` (centres unmarked) [Example 67] as the molecule, how does the pKi read?
A: The pKi was 8.55.

Q: With `Cc1nnc2n1-c1sc3c(c1C(c1ccccc1Cl)=NC2C)CCN(C(=O)C(C)(C)C)C3` (centres unmarked) [Example 73] as the molecule, how does the pKi read?
A: Its pKi is 8.00.

Q: With `CCc1ccc(C(=O)N2CCc3c(sc4c3C(c3ccccc3Cl)=NC(C)c3nnc(C)n3-4)C2)cc1` (centres unmarked) [Example 82] as the molecule, how does the pKi read?
A: The pKi was 8.60.
